Molecular target: M^pro protein of SARS-CoV-2 (3CLpro, P132H mutation) (Severe acute respiratory syndrome coronavirus 2, UniProt P0DTD1, P3395H)
Type: biochemical

O=S1(c2ccccc2)=N[Se]c2ccccc21 (stereo not shown) [Compound 1, 1-phenylbenzo[d][1,3,2]thiaselenazole-1-ketone] was tested, and the “inhibitory activity against the M^pro protein of SARS-CoV-2 compared with ebselen (EBS) control” value was “superior to that of the ebselen (EBS) control group”.

Reference: patent US20260015332A1, “SYNTHESIS METHOD AND APPLICATION OF BENZOTHIASELENAZOLE-1-OXIDE COMPOUND AND DERIVATIVE THEREOF” (priority 2022, published 2026)
